Reference: paper PMC7076650, “Co-Encapsulation of Mitoxantrone and β-Elemene in Solid Lipid Nanoparticles to Overcome Multidrug Resistance in Leukemia” (Pharmaceutics, 2020)
Values after ≈ are worked out from the molar mass of the structure shown. Read-outs that look alike come from different tables or passages of the source. One block for each molecule: values may come before it.

How the values were obtained:
K562/DOX cells [1] = experiment: Drug efflux study (DOX retained, flow cytometry), K562/DOX cells; type: cell-based; conditions: 10 μg/mL DOX loaded 4 h at 37 °C, then free medium
Method: In order to determine DOX efflux, K562 and K562/DOX cells were seeded and incubated in 12-well plates (1 × 10^5 cells/well). Different DOX formulations diluted with fresh medium to a concentration of 10 μg/mL were incubated with K562 and K562/DOX cells for 4 h at 37 °C. Subsequently, the cells were washed three times with ice-cold PBS, and then incubated with free medium at another 0.5, 1, 2, and 4 h. Ice-cold PBS was used to wash the cells at the end of each incubation time. The amounts of DOX retained in cells were determined by flow cytometry. The investigation was carried out in triplicate.

K562/DOX cells [2] = experiment: MTT cytotoxicity of MTO formulations in K562/DOX cells; type: cell-based; conditions: for IC50: Homo sapiens, K562/DOX cells, n = 3
Method: (§1) A cytotoxicity study of MTO, MTO/βE, MTO-SLNs, and MTO/βE-SLNs was also carried out by MTT assay in both K562 and K562/DOX cells lines. K562 cells and K562/DOX cells were seeded in a 96-well plate at a density of 5 × 10^3 cells/well and incubated for 48 h. Then, the cells were treated with MTO, MTO/βE, MTO-SLNs, and MTO/βE-SLNs at different doses (total amount of MTO in SLNs: 0.01, 0.1, 1, 2.5, 5, and 10 μg/mL in K562 cells and 0.1, 1, 10, 20, 40, and 80 μg/mL in K562/DOX cells for 48 h. After 48 h of incubation, cells were washed twice with cold PBS then incubated again for 4 h with 20 µL of MTT solution (5 mg/mL) added to each well. In order to solubilize the formazan crystals, 150 μL of DMSO per well was added to replace the medium. Finally, a Microplate Reader (Biotech) was used to measure the UV absorbance intensity at 570 nm. Each measurement was performed in triplicate. The cell viability percentage was evaluated using the following equation [4, 10]: Cell Viability (%)=ODsample /ODcontrol×100% where ODsample stands for the absorbance intensity of the cells treated with MTO, MTO/βE, MTO-SLNs, and MTO/βE-SLNs, while ODControl is the absorbance intensity of the untreated cells. The 50% inhibition concentrations (IC50) of different agents were calculated by Graph Pad Prism 5.0 software. All experiments were in triplicate and the results were given as means ± SD.
(§2) The different effects of drug formulations on K562/DOX were evaluated in the MDR reversal capacities through the index of drug resistance (IDR) and index of reversal of drug resistance (IRDR). IDR and IRDR were calculated as follows: IDR=IC50of other formulation against K562/DOX cells/IC50of MTO against K562 CellsIRDR=IC50of MTO against K562 cells /IC50of other formulation against K562/DOX cells

K562/DOX cells [3] = experiment: MTT assay of combinatorial effects of MTO and βE in different mass ratios; type: cell-based; conditions: Homo sapiens, 48 h of incubation
Method: The combinatorial effects of MTO and βE in different ratios (w/w) were assessed against K562/DOX through MTT assay. With a density of 5 × 10^3 cells/well, K562/DOX cells were seeded in 96-well plates and incubated for 48 h, then treated with different concentrations of MTO dissolved in the free medium of RPMI-1640, βE dissolved in the mixture of (RPMI-1640 and 0.5% DMSO), and different combination mass ratios of MTO/βE (10:1, 5:1, 2:1, 1:1, 1:2, 1:5, and 1:10 w/w). After 48 h of incubation, cells were washed twice with cold PBS, and then incubated again for 4 h with 20 µL of MTT solution (5 mg/mL) added to each well. In order to solubilize the formazan crystals, 150 μL of DMSO per well was added to replace the medium. Finally, a Microplate Reader (Biotech, Winooski, VT, USA) was used to measure the UV absorbance intensity at 570 nm. Each measurement was performed in triplicate. The cell viability percentage was evaluated using the following equation: Cell Viability (%)=ODsample /ODcontrol×100% where ODSample stands for the optical density (absorbance intensity) of the cells treated with MTO, βE, or MTO in combination with βE, while ODControl is the absorbance intensity of the untreated cells. […] The synergistic effect of different combinations of MTO and βE was assessed through the calculation of combination index (CI) using the equation of Chou and Talalay. […]

K562 cells = experiment: MTT cytotoxicity of MTO formulations in K562 cells; type: cell-based; conditions: n = 3; for IC50: Homo sapiens, K562, 48 h
Method: as §1, §2

[4] = system: K562/DOX xenografts tumors; experiment: In vivo antitumor activity in K562/DOX xenograft tumor model; parameters: species or system BALB/c nude mice; conditions: during treatment, compared with saline
Method: Mice bearing K562/DOX xenografts tumors were used to evaluate different MTO formulations through an in vivo antitumor efficacy study. K562/DOX cells at a concentration of 1 × 10^7 cells/mice with a volume of 200 μL were injected into the left axilla of BALB/c nude mice. After inoculation of cells, the growth of tumor was observed every two days by measuring the diameter of tumor with Vernier caliper. The tumor volume was calculated as (L × W^2)/2, where L and W are the tumor length and width, respectively. The anti-tumor evaluation was started when tumor volume reached about 100 mm^3, and this day was designated as day 0. Mice were randomly divided in five groups of six: Saline, MTO, MTO/βE, MTO-SLNs, and MTO/βE-SLNs (MTO dosage: 2 mg/kg and βE dosage: 4 mg/kg). The injections were carried out on days 0, 3, 6, 9, and 12 via the tail vein. In order to evaluate the treatment efficacy and safety, mice were sacrificed, and then tumors, heart, lung, liver, kidney, and spleen were dissected and fixed in 4% paraformaldehyde. In order to observe the pathological changes in different tissues, samples were cut and stained with hematoxylin and eosin (H&E) for histological analyses. An optical microscope (Leica DMI6000 B, Wetzlar, Germany) was used to take different photos. […]

[5] = Pharmacokinetics after intravenous administration; type: in vivo, SD rats; conditions: rats; for AUC(0-t) / Cmax / half-life: male, Sprague-Dawley (SD), rat, plasma; for time post injection after which no drug was observed in plasma: free drug
Method: All the preparations were administered intravenously into the tail vein at a dose of 2 mg/kg (n = 6) for MTO and 4 mg/kg (n = 6) for βE. The blood samples were taken with a heparinized syringe at 0.5, 1, 2, 4, 6, 8, 12, and 24 h.

K562/DOX cells [6] = experiment: Intracellular ATP production assay; type: cell-based; conditions: 8 h at 37 °C
Method: An ATP assay kit was used to measure the intracellular ATP. K562/DOX cells at a density of 1 × 10^5 cells/well were seeded and cultured in 12-well plates and incubated for 24 h. The cells were then incubated with fresh medium containing MTO, MTO/βE, MTO-SLNs, and MTO/βE-SLNs for 8 h at 37 °C. The cell ATP content was determined based on the manufacturer’s protocol. Briefly, the cells were collected and lysed by 200 μL of lysis solution to obtain the cell lysate, followed by centrifugation at 12,000× g for 5 min at 4 °C. Next, 20 μL of the supernatant of each sample was mixed with 100 μL of ATP testing solution in a black 96-well plate, and kept for 10 min. A microplate luminometer (Luminoskan, Thermo Scientific, Waltham, MA, USA) was used to measure the luminescence intensity. The raw data were converted to ATP concentrations using the standard ATP calibration.

K562/A02 cells = system: K562/A02 cells; parameters: method as in PMID 29453043; conditions: cited from earlier work

Molecule: COc1cccc2c1C(=O)c1c(O)c3c(c(O)c1C2=O)C[C@@](O)(C(=O)CO)C[C@@H]3O[C@H]1C[C@H](N)[C@H](O)[C@H](C)O1 [DOX, doxorubicin]
DOX that underwent efflux (K562/DOX cells [1]): about 90%

IC50 (K562/DOX cells [3]; n = 3, concentration of MTO alone or in the combination, read-out: IC50 MTO): 48.2 µg/mL | AUC(0-t) ([5]; 2 mg/kg MTO, n = 6, read-out: AUC0–24 of MTO): 1180 ± 150 ng·h/mL | Cmax ([5]; 2 mg/kg MTO, n = 6, read-out: Cmax of MTO): 3450 ± 580 ng/mL | half-life ([5]; 2 mg/kg MTO, n = 6, read-out: T1/2 of MTO (converted)): 91.8 ± 19.8 min | time post injection after which no drug was observed in plasma [5]: 6 h
Molecule: Cl.Cl.O=C1c2c(O)ccc(O)c2C(=O)c2c(NCCNCCO)ccc(NCCNCCO)c21 [MTO, 1,4-dihydroxy-5,8-bis[[2-[(2-hydroxyethyl)amino]ethyl]amino] anthraquinone dihydrochloride]
IC50 (K562/DOX cells [2]; 48 h): 48.2 µg/mL | cell survival rate of K562/DOX cells (K562/DOX cells [2]; concentration of MTO 10 μg/mL, 48 h): 81.43% | survival ratio in K562/DOX cells (K562/DOX cells [2]; concentration of MTO 80 μg/mL, 48 h): 24.06% | IDR (index of drug resistance) (K562/DOX cells [2]; from IC50 in K562/DOX and K562 cells): 9.59 | IC50 K562 (K562 cells; 48 h): 5.025 µg/mL | IC50 (K562 cells): 5.02 µg/mL | body weight of mice [4]: decreased remarkably

IC50 (K562/DOX cells [3]; n = 3, concentration of βE alone or in the combination, read-out: IC50 βE): 140 µg/mL | AUC(0-t) ([5]; 4 mg/kg βE, n = 6, read-out: AUC0–24 of βE): 4860 ± 1760 ng·h/mL | Cmax ([5]; 4 mg/kg βE, n = 6, read-out: Cmax of βE): 6680 ± 1210 ng/mL | half-life ([5]; 4 mg/kg βE, n = 6, read-out: T1/2 of βE (converted)): 174 ± 27 min | time post injection after which no drug was observed in plasma [5]: 12 h
Molecule: C=CC1(C)CCC(C(=C)C)CC1C(=C)C (stereo not shown) [βE, 1-methyl-1-vinyl-2,4-diisopropenyl-cyclohexane]
IC50 (K562/DOX cells [2]; 48 h): 140 µg/mL (≈ 687 µM) | effect on intracellular ATP (K562/DOX cells [6]): significant inhibitory capacity | IC50 (K562 cells): 122 µg/mL (≈ 598 µM)

Molecule: ethyl lucidenates-A
reversal of resistance of K562/A02 cells to vincristine (K562/A02 cells): 7.59 fold
